The values below come from PMC9405451, “Uptake and Immunomodulatory Properties of Betanin, Vulgaxanthin I and Indicaxanthin towards Caco-2 Intestinal Cells” (Antioxidants, 2022).

A short description of data set [1]: Trans-epithelial transport (AP-to-BL) across differentiated Caco-2 monolayer. The class given is in vitro ADME, human. The following applies: human, Caco-2, 1 mM in AP chamber, apical pH 6.5, basolateral pH 7.5, read-out: Papp (apparent permeability coefficient), absorptive direction AP-to-BL. As to the method: (§1) Trans-epithelial transport of purified betalains (AP-to-BL) was investigated in differentiated Caco-2 cells in 12-well plate transwell inserts (PET membrane, 0.4 μm pore size, Sarstedt) at an initial density of 1 × 10^5 cells cm^−2. Complete medium was added in both apical (AP) and basolateral (BL) chambers and was replaced every 2–3 days. Cell membrane integrity was monitored weekly through measurement of trans-epithelial electrical resistance (TEER) across the growth area until full differentiation of the cells after 21 days. During the experiment, Hanks’ balanced salt solution (HBSS) in the apical compartment was adjusted to pH 6.5 with MES (2 mM), while basolateral pH remained at 7.5 [25]. Purified BET, VUL and IND (420–1000 μM) were supplied to the apical side of the membrane and incubated at 37 °C for up to 2 h. As a marker compound of paracellular transport, phenolsulfonaphtalein (5 mM) was also applied to parallel cell membranes in the apical chamber. The study also evaluated the permeability of compounds through the Caco-2 membrane with a loosened tight junction in parallel wells which was achieved by 5-min incubation of differentiated membrane in trypsin EDTA (0.05%, v/v). The basolateral solution was collected and replaced every 30 min until 2 h, under initial rate conditions. The betalain-containing solutions were processed and submitted to LC-MS analysis, while phenolsulfonaphtalein was quantified spectrophotometrically at λ of 430 nm. TEER values were monitored at the beginning and the end of the experiment to check the impact of compounds on monolayer integrity. The apparent permeability coefficients (Papp) were calculated as per Equation (1), where V = volume of basolateral solution, A = cell growth area, C0 = initial concentration of apical betalain and dC/dt = steady-state flux across the monolayer. (1) Papp=1/C0×A·V×dC/dt
(§2) Betalain compounds from the cell culture samples were quantified and identified by an ultra-high-speed LC fitted with a UV-Vis detector (SPD-20A), followed by a single quadrupole MS with an electrospray ionisation source (ESI) (Shimazu, 2020). HPLC separation was performed by a reverse phase C18 column (100 mm × 2.1 mm I.D., 3.5 μm) at the temperature of 35 °C. […] Betacyanins and betaxanthins were detected at the wavelengths of 536 nm and 486 nm, respectively, and their molecular weights were monitored by ESI-MS with positive ion mode. Compounds were identified based on the m/z values and quantified using standard curves with purified betalains, as shown in Supplemental Figure S1.

For data set [2], the system named is differentiated Caco-2 cells. The data set is described as above. The class given is in vitro ADME, human. The following applies: AP-to-BL. As to the method:
as §1, §2

For another data set, the system named is IL-6. In words: IL-6 mRNA level (qPCR) in cytokine-stimulated Caco-2 cells. The following applies: 5–80 μM, 6 h cytokine stimulation, maximum effect. The class given is cell-based, human. The method, then:
(§3) Confluent Caco-2 cells were stimulated with a cocktail of cytokines comprised of tumour necrosis factor-α (TNF-α, 20 ng mL^−1), interleukin-1β (IL-1β, 40 ng mL^−1), interferon-γ (IFN-γ, 10 ng mL^−1) and lipopolysaccharide (LPS, 100 ng mL^−1) in the presence or absence of BET, VUL and IND treatments (5–80 µM) for 6 h. With the completion of incubations, cells were washed with cold DPBS and lysed with TRIsure reagent (Scientific Laboratory Supplies Ltd.). Total RNA of cell samples was extracted in accordance with the manufacturer’s instructions. After resuspending the RNA pellets in DEPC water, concentration and quality were determined using the NanoQuant plate (Tecan Spark 10M plate reader) at 260 and 280 nm. Reverse transcription of RNA was achieved using the iScript™ cDNA Synthesis Kit (Bio-Rad). Transcription levels of target genes—interleukin 6 (IL-6), IL-8, COX-2, iNOS, NADPH oxidase 1 (NOX-1), NAD(P)H quinone dehydrogenase 1 (NQO-1), heme oxygenase 1 (HO-1), glutamate-cysteine ligase catalytic subunit (GCLC), glutathione peroxidase 1 (GPX-1), glutathione S-transferase 1 (GSTA-1) and GSTP-1 were evaluated using SybrGreen based reagent (SensiFast SYBR Green, SLS Ltd., Galveston, TX, USA) via real-time qPCR using StepOne Plus Real-Time PCR System (Applied Biosystems, Nottingham, UK). Primers of target genes were designed and blasted using the NCBI database, whose PCR product sizes were confirmed by 2% agarose gel electrophoresis. The list of primer sequences used in the study is presented in Supplemental Table S1. The calculation of target gene levels was based upon the Livak (2^−ΔΔCT) method with normalisation to the housekeeping gene, β-actin [31].

The nature of data set [3]: EPR DPPH radical scavenging assay. As to conditions: 20 μM betalain. As to the method:
Electron paramagnetic resonance (EPR) with spin trapping was used to determine superoxide and DPPH radical scavenging abilities of betalains reflected by the reduction of relative signal strength. EPR spectra were recorded 1 min after reagent mixing on a JEOL X320 spectrometer (X-band) in glass capillaries (0.8 mm ID). Superoxide assay was carried out by mixing the following solutions in 30% aqueous ethanol as solvent: hypoxanthine (1 mM, 55 μL), 5,5-dimethyl-1-pyrroline-N-oxide (DMPO) (1 M, 15 μL) and deferoxamine (10 mM, 10 μL). Individual betalains (200 and 500 μM) or solvent control were subsequently added in a volume of 10 μL. The reaction was initiated by the addition of 2 U mL^−1 xanthine oxidase (10 μL), achieving 20 and 50 μM as final concentrations of betalains in the mixture.
The 2,2-diphenyl-1-(2,4,6-trinitrophenyl)hydrazyl (DPPH) assay was conducted by mixing ethanol (40 μL) with 30% aqueous ethanol solutions of DPPH (100 μM, 50 μL) and purified betalains (200 μM, 10 μL), providing the working concentration of betalains as 20 μM. In both assays, acquisition of EPR spectra was started 1 min after reagent mixing. To improve the accuracy of measurements, the signal intensity for the superoxide assay was determined in triplicate by fitting the experimental spectra to the simulated superoxide-DMPO adduct spectra.
Background: DPPH is a stable violet radical that fades when it is reduced.

The test system of a further data set is GPX-1. In words: GPX-1 mRNA level (qPCR) in cytokine-stimulated Caco-2 cells. The class given is cell-based, human. As to conditions: 5–80 μM, 6 h cytokine stimulation, vs SC. The method, then: as §3, with “Primers of target genes were designed and blasted using the NCBI database, whose PCR product sizes were confirmed by 2% agarose gel electrophoresis. The list of primer sequences used in the study is presented in Supplemental Table S1. The calculation of target gene levels was based upon the Livak (2^−ΔΔCT) method with normalisation to the housekeeping gene, β-actin [31].” left out
(In general: Quantitative PCR measures a nucleic acid by following its amplification.)

In a further data set the test system is HO-1. In words: HO-1 mRNA level (qPCR) in cytokine-stimulated Caco-2 cells. The following applies: 5–80 μM, 6 h cytokine stimulation, vs SC. The class given is cell-based, human. As to the method:
as §3, with “Primers of target genes were designed and blasted using the NCBI database, whose PCR product sizes were confirmed by 2% agarose gel electrophoresis. The list of primer sequences used in the study is presented in Supplemental Table S1. The calculation of target gene levels was based upon the Livak (2^−ΔΔCT) method with normalisation to the housekeeping gene, β-actin [31].” left out

In a further data set the test system is NQO-1. In words: NQO-1 mRNA level (qPCR) in cytokine-stimulated Caco-2 cells. The class given is cell-based, human. The following applies: 5–80 μM, 6 h cytokine stimulation, vs SC. As to the method: as §3, with “Primers of target genes were designed and blasted using the NCBI database, whose PCR product sizes were confirmed by 2% agarose gel electrophoresis. The list of primer sequences used in the study is presented in Supplemental Table S1. The calculation of target gene levels was based upon the Livak (2^−ΔΔCT) method with normalisation to the housekeeping gene, β-actin [31].” left out

For a further data set, the system named is GSTM. Set-up: method as in PMID 23769299. The following applies: 20 μM, human hepatocytes; cited from earlier work.

Molecules are shown by their SMILES. Where only a bound is given, the exact number is not on record here.

As to `O=C(O)C1=C/C(=C/C=[N+]2/CCC[C@H]2C(=O)[O-])C[C@@H](C(=O)O)N1` [IND, indicaxanthin], the Papp A→B at 2 h, 1 mM in data set [1] is 0.893 ×10⁻⁶ cm/s. The “Proportion transported within 2 h of total amount applied” value in data set [2] is 2.2%. Also, the “Downregulation of IL-6 expression vs cytokine control (SC)” value in the data set on IL-6 is listed as “up to 50%”. The “Antiradical activity in DPPH assay (EPR)” value in data set [3] was “did not exhibit any evident antiradical activity”. Also, the “Upregulation of GPX-1 expression” value with GPX-1 is below 26%.
`O=C(O)C1=C/C(=C/C=[N+]2/c3cc(O)c(O[C@@H]4O[C@H](CO)[C@@H](O)[C@H](O)[C@H]4O)cc3C[C@H]2C(=O)[O-])C[C@@H](C(=O)O)N1` [BET, betanin]: in the data set on HO-1, the “Upregulation of HO-1 expression” value is listed as below 24%. For the same compound, in data set [1], the Papp A→B at 2 h, 1 mM amounted to 0.415 ×10⁻⁶ cm/s. In data set [2], the “Proportion transported within 2 h of total amount applied” value came out at 1.0%. Moreover, in the data set with NQO-1, the “Upregulation of NQO-1 expression” value is below 24%. For the same compound, the “Increase of GSTM expression in the baseline” value in the data set with GSTM is on record as around 100%. Moreover, in the data set with IL-6, the “Downregulation of IL-6 expression vs cytokine control (SC)” value was “up to 50%”. Moreover, the “Decrease in EPR signal intensity, DPPH assay” value in data set [3] was below 71%. Further, the “Upregulation of GPX-1 expression” value in the data set with GPX-1 is listed as below 23%.
